Results: patent US7642358B2, “Substituted phenylacetic acids” (Metabolex, Inc., priority 2002, dated 2010)

System: C57BL/6J ob/ob mice
Test: Anti-diabetic activity (plasma glucose lowering) in C57BL/6J ob/ob mice, oral gavage
Type: in vivo, mouse
Conditions: male C57BL/6J ob/ob mice, oral gavage once a day for 1-4 days; for minimal effective dose: Mus musculus, dose effective for plasma glucose lowering, blood taken 6 hours after each dose, read-out: Potency
Method: The anti-diabetic activities of the compounds were evaluated in the C57BL/6j ob/ob Mice model.
Male, 7-9 weeks old, C57BL/6J ob/ob mice were purchased from The Jackson Laboratory (Bar Harbor, Me., USA). Animals were housed (4-5 mice/cage) under standard laboratory conditions at 22±3° C. temperature and 50±20% relative humidity, and were maintained on a diet of Purina rodent chow and water ad libitum. Prior to treatment, blood was collected from the tail vein of each animal. Mice that had non-fasting plasma glucose levels between 250 and 500 mg/dl were used. Each treatment group consisted of 8-10 mice that were distributed so that the mean glucose levels were equivalent in each group at the start of the study. Mice were dosed orally by gavage once a day for 1-4 days with vehicle and one or more dose of test compound at a dose ranging from 5 to 125 mg/kg. Compounds were delivered in a liquid formulation containing 5% (v/v) dimethyl sulfoxide (DMSO), 1% (v/v) Tween 80® and 0.9% (w/v) methylcellulose. The gavage volume was 10 ml/kg. Blood samples were taken at 6 hours after the each dose and analyzed for plasma glucose. Food intake and body weight were measured daily. Plasma glucose concentrations were determined colorimetrically using a commercial glucose oxidase method (Sigma Chemical Co, St. Louis, Mo., USA). Significant difference between groups (comparing drug-treated to vehicle-treated) was evaluated using the Student unpaired t-test.
FIG. 6 illustrates the anti-diabetic effects of selected compounds of the present invention. Table 15 provides the relative potency of some of these selected compounds. Compounds that are effective for glucose lowering at the dose of ≧125 mg/kg are assigned a potency of +; compounds that are effective for glucose lowering at a dose of >25 mg/kg but <125 mg/kg are assigned a potency of ++; compounds that are effective for glucose lowering at a dose of ≦25 mg/kg are assigned a potency of +++. For example, a compound at 25 mg/kg that lowered the animal glucose level from 400 mg/dL (vehicle group value) to 250 mg/dL, is assigned the potency of +++.

Structure (SMILES) | minimal effective dose [mg/kg] | Insulin Level compared with vehicle
O=C(O)C(Oc1ccccc1-c1nc2ccccc2o1)c1ccc(Cl)cc1 (centres unmarked) [Example I-1] | 25 to 125 | Lower
O=C(O)C(Oc1ccccc1-c1nc2ccccc2o1)c1cccc(C(F)(F)F)c1 (centres unmarked) [Example I-3] | ≥ 125 | Lower
O=C(O)C(Oc1ccc(C(F)(F)F)cc1-c1nc2ccccc2o1)c1cccc(C(F)(F)F)c1 (centres unmarked) [Example I-89] | ≤ 25 | Lower
O=C(O)C(Oc1ccc(C(F)(F)F)cc1-c1nc2ccccc2o1)c1ccccc1 (centres unmarked) [Example I-92] | ≤ 25 | Lower
O=C(O)C(Oc1ccc(Cl)cc1-c1nc2ccccc2o1)c1ccc(Cl)cc1 (centres unmarked) [Example I-190] | ≤ 25 | Lower
O=C(O)C(Oc1ccc(Cl)cc1-c1nc2ccccc2o1)c1cccc(C(F)(F)F)c1 (centres unmarked) [Example I-191] | ≤ 25 | Lower
COc1ccc(C(Oc2ccc(Cl)cc2-c2nc3ccccc3o2)C(=O)O)cc1 (centres unmarked) [Example I-193] | ≤ 25 | Lower
O=C(O)C(Oc1ccc(Cl)cc1-c1nc2ccccc2o1)c1cccc(Cl)c1 (centres unmarked) [Example I-194] | ≤ 25 | Lower
O=C(O)[C@@H](Oc1ccc(C(F)(F)F)cc1-c1nc2ccccc2o1)c1ccccc1 [Example I-369] | ≤ 25 | Lower
CC(Oc1ccc(C(F)(F)F)cc1-c1nc2ccccc2o1)(C(=O)O)c1ccccc1 (centres unmarked) [Ia-365] | ≤ 25 | Lower
CC(Oc1ccc(C(F)(F)F)cc1-c1nc2ccccc2o1)(C(=O)O)c1ccccc1 (centres unmarked) [Ia-366] |  | Lower
Cc1ccc(OC(C(=O)O)c2cccc(C(F)(F)F)c2)c(-n2nc3ccccc3n2)c1 (centres unmarked) [XI-2] | ≤ 25 | Lower
Cc1ccc(OC(C(=O)O)c2ccc(C(F)(F)F)cc2)c(-n2nc3ccccc3n2)c1 (centres unmarked) [XI-6] | ≤ 25 | Lower
O=C(O)C(Oc1ccc(Cl)cc1-n1nc2ccccc2n1)c1ccc(C(F)(F)F)cc1 (centres unmarked) [XI-24] | ≤ 25 | Lower
O=C(O)C(Oc1ccc(C(F)(F)F)cc1-n1nc2ccccc2n1)c1cccc(C(F)(F)F)c1 (centres unmarked) [XI-47] | ≤ 25 | Lower
O=C(O)C(Oc1ccc(C(F)(F)F)cc1-n1nc2ccccc2n1)c1ccc(C(F)(F)F)cc1 (centres unmarked) [XI-51] | ≤ 25 | Lower
Cc1ccc(OC(C)(C(=O)O)c2ccc(Cl)cc2)c(-n2nc3ccccc3n2)c1 (centres unmarked) [XIa-5] | ≤ 25 | Lower
CC(Oc1ccc(C(F)(F)F)cc1-n1nc2ccccc2n1)(C(=O)O)c1ccc(C(F)(F)F)cc1 (centres unmarked) [XIa-51] | ≤ 25 | Lower
